Test results: US20080085247A1, “Composition of Menthyl Lactate and a Mixture of Menthol Isomers” (SYMRISE GMBH & CO. KG, priority 2004, published 2008)

Tested on: facial skin
Assay: Sensory test of cooling sensation, alcohol-free face lotion, 19 trained panelists
Format: in vivo, human
Conditions: 0.3% in alcohol-free face lotion
Procedure: A sensory test was carried out with a group of 19 trained panelists in order to evaluate the performance of the coolant composition according to the present invention of Example 2 consisting of 15% l-menthyl l-lactate, 57.6% racemic neomenthol, 21.8% racemic menthol, 4.8% racemic neoisomenthol and 0.8% racemic isomenthol) for topical applications.
The cooling sensation of the coolant composition of Example 2 was tested in direct comparison to l-menthyl l-lactate. The mixture according to Example 2 and l-menthyl l-lactate were separately incorporated into samples of an alcohol-free face lotion at a level of 0.3%, based on the total weight of the face lotion.
The presented data are average values. The overall cooling sensation was rated on a scale of 1 to 5 (1=very weak; 5=very strong).

CC(C)[C@@H]1CC[C@@H](C)C[C@H]1OC(=O)[C@H](C)O [I-menthyl I-lactate, l-menthyl l-lactate]
How long does the cooling sensation last ? (average): about 9 minutes
When does the cooling sensation become noticeable? (average): after 1 minute
Overall cooling sensation (facial skin) (average, scale of 1 to 5 (1=very weak; 5=very strong)): 2.4
Was the cooling sensation pleasant ? yes (share of panelists answering yes): yes: 73.7%
